{"source": "patent US20140088184A1", "about": "(priority 2011, published 2014)", "key": {"[1]": {"tested_on": "HCVcc", "experiment": "Quantitative binding test: HCVcc attachment to Huh-7 cells, HCV RNA by quantitative RT-PCR", "type": "cell-based, hepatitis C virus", "settings": "1 hour at 4° C., MOI 10, vs DMSO; for virus attachment to the cell surface: 50 μM", "experimental": "HCVcc. For the quantitative “binding” experiments, the HCVcc virus was mass produced and purified by concentration and separation in a gradient of iodixanol. Supernatants of infected cells were precipitated with 8% PEG 6000 at 4° C. overnight and centrifuged for 25 minutes at 10 000 rpm. The pellets were resuspended in 1 mL, of PBS, loaded on a continuous iodixanol gradient (10-40%), and centrifuged at 36 000 rpm for 16 hours at 4° C. Fractions of 500 μL were collected and the titre of each fraction was determined. The most infectious fractions were combined in order to perform the experiments.\nQuantitative “Bindinq” Test. The HCVcc virus was contacted with the Huh-7 cells for 1 hour at 4° C. in the presence of EGCG (50 μM), delphinidin chloride (50 μM) or porcine intestinal heparin (500 ug/mL). After 3 washes with PBS, the total RNAs (viral and cellular) were extracted using the NucleoSpin RNA II kit (Macherey-Nagel, Düren, Germany) and the HCV RNA quantified by quantitative RT-PCR (Castelain et al, J Clin Virol 2004). Heparin was used in parallel as a control.\nIn order to determine whether the step of attachment to the cell surface was inhibited by EGCG, quantitative “binding” (or attachment) tests have been carried out. The action of delphinidin chloride was tested in parallel. Heparin, a known inhibitor of HCV attachment to the cell surface, was used as a positive control. The cells were incubated with HCVcc purified to a multiplicity of infection of 10 for 1 hour at 4° C. in the presence of DMSO, 50 M of EGCG, 50 μM of delphinidin chloride or 500 μg/mL of heparin. The cells were washed 3 times with cold PBS and the total RNA extracted. The amount of virus fixed was determined by quantifying the viral genomic RNA by means of quantitative RT-PCR."}, "[2]": {"tested_on": "JFH1-Rluc virus", "experiment": "microbe, parasite or virus in culture", "type": "cell-based, hepatitis C virus (isolate JFH1, genotype 2a)", "settings": "for relative viral infection / inhibition of viral infection: 50 μM during 2 h infection of Huh-7 cells, luciferase 48 h after infection; for relative viral infection: compared with DMSO; for inhibition of viral infection: EGCG from CALBIOCHEM or EXTRASYNTHESE"}, "[3]": {"tested_on": "HCVpp expressing envelope proteins E1 and E2 of the HCV virus of genotypes 1a, 1b, 2a, 2b, 3, 4, 5, 6", "type": "cell-based, hepatitis C virus", "settings": "for relative infection: vs DMSO"}, "[4]": {"tested_on": "HCVcc", "experiment": "microbe, parasite or virus in culture", "type": "cell-based"}, "[5]": {"tested_on": "JFH1-Rluc virus", "experiment": "Split-up of HCV entry steps (attachment, receptor interaction, endocytosis/fusion), JFH-Luc in Huh-7 cells", "settings": "for step of HCV entry inhibited: entry split up into its three constituent steps, general statement of the description"}, "[6]": {"tested_on": "HCV viral replication", "experiment": "Viral replication (results not shown)", "type": "cell-based, hepatitis C virus"}, "[7]": {"tested_on": "VSVpp (virus like particles expressing the envelope protein of VSV)", "type": "cell-based, vesicular stomatitis virus"}, "[8]": {"tested_on": "yellow fever virus (YFV)", "type": "cell-based", "settings": "Huh-7 cells, EGCG 50 μM vs DMSO"}, "[9]": {"tested_on": "Sindbis virus (SINV)", "type": "cell-based", "settings": "Huh-7 cells, EGCG 50 μM vs DMSO"}, "[10]": {"tested_on": "bovine viral diarrhoea virus (BVDV)", "type": "cell-based", "settings": "MDBK cells, EGCG 50 μM vs DMSO"}, "[11]": {"tested_on": "JFH1 virus", "experiment": "Cell to cell transmission of HCVcc (JFH1) in Huh-7 cells under agarose", "type": "cell-based, hepatitis C virus", "settings": "EGCG 50 μM in 1% agarose medium, 72 h post-infection; control sites average 45", "experimental": "The Huh-7 cells cultured in 24 well plates are infected with HCVcc over a period of 2 hours. The inoculum was eliminated and replaced by DMEM medium supplemented with GLUTAMAX®-1,10% of FCS and 1% low melting point agarose gel (SeaPlaque® Agarose marketed by LONZA®) containing EGCG (50 μM) or an equivalent volume of Dimethyl Sulfoxide (DMSO) as a control. The cells are incubated at 37° C. over a period of 3 days at the end of which the agarose is eliminated and the infection sites are detected using indirect immunofluorescence for HCV E1 protein as previously described.\nA second mode of viral infection is the transmission of the virus from cell to cell. […] The agarose prevents infection of cells by the virus secreted into the medium and thus makes it possible to observe the cell to cell transmission of the virus by virtue of the cells being in contact amongst themselves.\nAt seventy-two hours post-infection, the cells were fixed and infection was detected by immunofluorescence after labelling with an anti-E1 antibody. A step of detection is then carried out with a Cy3 coupled secondary antibody. The nuclei are stained with DAPI staining. The number of cells per infection site was quantified (FIG. 5). In the presence of EGCG the infection sites are much smaller. They contain an average of 3-4 infected cells showing that the virus has not propagated after infecting a cell. […]"}, "[12]": {"tested_on": "HCV JFH1", "experiment": "Successive infections with supernatants of infected cells (passages P0 to P4)", "settings": "50 μM EGCG, passages P0 to P4, 48 h each"}, "[13]": {"settings": "genotypes 1a, 1b, 2a, 2b, 3, 4, 5 and 6, general statement of the description, no concentration"}}, "note": "Like-named read-outs stand apart in the source and are kept apart here."}
{"compound": "heparin [reference compound]", "values": [{"measurement": "attachment of the virus to the surface of cells", "setting": "[1]; 500 μg/mL, positive control", "value": "greatly reduced"}]}
{"compound": "Oc1cc(O)c2c(c1)O[C@H](c1ccc(O)c(O)c1)[C@H](O)C2", "note": "[(−)-epicatechin, reference compound]", "values": [{"measurement": "relative viral infection", "setting": "[2]", "value": "identical to that observed for DMSO"}]}
{"compound": "Oc1cc(O)c2cc(O)c(-c3cc(O)c(O)c(O)c3)[o+]c2c1", "note": "[delphinidin chloride, 3,3′,4′,5,5′,7-Hexahydroxyflavylium chloride]", "values": [{"measurement": "inhibitory effect across viral genotypes of HCV", "setting": "[3]", "value": "observed in all the viral genotypes of HCV"}, {"measurement": "IC50", "setting": "[4]; Hepatitis C virus, Huh-7, read-out: IC50 (concentration inhibiting 50% infection)", "value": "~3.5", "unit": "µM"}, {"measurement": "virus attachment to the cell surface", "setting": "[1]", "value": "strong decrease"}, {"measurement": "step of HCV entry inhibited", "setting": "[5]", "value": "only the step of attachment is inhibited"}]}
{"compound": "O=C(O[C@@H]1Cc2c(O)cc(O)cc2O[C@@H]1c1cc(O)c(O)c(O)c1)c1cc(O)c(O)c(O)c1", "note": "[EGCG, (2R,3R)-5,7-dihydroxy-2-(3,4,5-trihydroxyphenyl)-3,4-dihydro-2H-chromen-3-yl 3,4,5-trihydroxybenzoate]", "values": [{"measurement": "decrease of viral infection (factor)", "setting": "[2]; 50 μM EGCG during 2 h infection of Huh-7 cells", "value": "greater than 10"}, {"measurement": "inhibition of viral infection", "setting": "[2]", "value": "greater than 95%"}, {"measurement": "IC50", "setting": "[2]; Hepatitis C virus, Huh-7, read-out: IC50 (viral infection)", "value": 5, "unit": "µM"}, {"measurement": "effect on viral entry", "setting": "[2]; non infected cells treated with the molecule before or after infection", "value": "no effect"}, {"measurement": "inhibitory effect with pretreated virus", "setting": "[2]; virus incubated 45 minutes with 50 μM EGCG before infection", "value": "increase in the inhibitory effect"}, {"measurement": "viral replication", "setting": "[6]", "value": "not affected"}, {"measurement": "effect on the infection by HCVpp of all genotypes tested", "setting": "[3]; EGCG 50 μM", "value": "inhibitory effect"}, {"measurement": "relative infection", "setting": "[3]; HCVpp genotype 1b, EGCG 50 μM", "value": "substantially nil"}, {"measurement": "relative infection", "setting": "[3]; HCVpp genotype 2a, EGCG 50 μM", "value": "substantially nil"}, {"measurement": "relative infection", "setting": "[3]; HCVpp genotype 2b, EGCG 50 μM", "value": "substantially nil"}, {"measurement": "relative infection", "setting": "[3]; HCVpp genotype 4, EGCG 50 μM", "value": "substantially nil"}, {"measurement": "inhibitory effect across viral genotypes of HCV", "setting": "[3]; [13]", "value": "observed in all the viral genotypes of HCV"}, {"measurement": "effect on infection by the VSVpp", "setting": "[7]", "value": "no effect"}, {"measurement": "relative infection rate", "setting": "[7]", "value": 85, "unit": "%"}, {"measurement": "effect on cell infection", "setting": "[8]", "value": "does not have an inhibitory effect"}, {"measurement": "effect on cell infection", "setting": "[9]", "value": "does not have an inhibitory effect"}, {"measurement": "effect on cell infection", "setting": "[10]", "value": "does not have an inhibitory effect"}, {"measurement": "number of cells per infection site (average)", "setting": "[11]", "value": "3-4 infected cells"}, {"measurement": "IC50", "setting": "[4]; Hepatitis C virus, Huh-7; read-out: IC50 (concentration inhibiting 50% infection)", "value": "~11", "unit": "µM"}, {"measurement": "virus attachment to the cell surface", "setting": "[1]", "value": "strong decrease"}, {"measurement": "percentage of cells infected in each passage of supernatant", "setting": "[12]", "value": "elimination of HCV from the culture supernatant from the third passage onwards and the complete elimination in the fourth passage"}, {"measurement": "infection (luciferase activity)", "setting": "[5]; 50 μM EGCG during all three steps of viral entry (Sample 5)", "value": "significant reduction of infection"}, {"measurement": "infection (luciferase activity)", "setting": "[5]; 50 μM EGCG during the step of attachment, 1 h at 4° C. (Sample 2)", "value": "significant reduction of infection"}, {"measurement": "infection (luciferase activity)", "setting": "[5]; 50 μM EGCG during the step of endocytosis or fusion, 1 h at 37° C. (Sample 4)", "value": "does not seem to have any effect"}, {"measurement": "infection (luciferase activity)", "setting": "[5]; 50 μM EGCG during the step of interaction with host cell receptors (Sample 3)", "value": "does not seem to have any effect"}, {"measurement": "step of HCV entry inhibited", "setting": "[5]", "value": "only the step of attachment is inhibited"}]}
{"compound": "Oc1cc(O)c2c(c1)O[C@H](c1ccc(O)c(O)c1)[C@@H](O)C2", "note": "[(+)-catechin, reference compound]", "values": [{"measurement": "relative viral infection", "setting": "[2]", "value": "identical to that observed for DMSO"}]}
{"compound": "O=C(O[C@@H]1Cc2c(O)cc(O)cc2O[C@@H]1c1ccc(O)c(O)c1)c1cc(O)c(O)c(O)c1", "note": "[ECG, (2R,3R)-2-(3,4-Dihydroxyphenyl)-3,4-dihydro-1(2H)-benzopyran-3,5,7-triol 3-(3,4,5-trihydroxybenzoate)]", "values": [{"measurement": "inhibition of viral infection", "setting": "[2]", "value": "about 40%"}, {"measurement": "inhibitory effect across viral genotypes of HCV", "setting": "[3]; [13]", "value": "observed in all the viral genotypes of HCV"}, {"measurement": "step of HCV entry inhibited", "setting": "[5]", "value": "only the step of attachment is inhibited"}]}
{"compound": "Oc1cc(O)c2c(c1)O[C@H](c1cc(O)c(O)c(O)c1)[C@H](O)C2", "note": "[EGC, (2R,3R)-2-(3,4,5-trihydroxyphenyl) chroman-3,5,7-triol]", "values": [{"measurement": "inhibition of viral infection", "setting": "[2]", "value": "~80", "unit": "%"}, {"measurement": "inhibitory effect across viral genotypes of HCV", "setting": "[3]; [13]", "value": "observed in all the viral genotypes of HCV"}, {"measurement": "step of HCV entry inhibited", "setting": "[5]", "value": "only the step of attachment is inhibited"}]}
